The test system of assay [1] is Phosphatidylinositol 4,5-bisphosphate 3-kinase catalytic subunit alpha isoform (Homo sapiens), P42336 [H1047Y]. Conditions: Compound concentration 1000.0 nM.
Assay [2] addresses Casein kinase II subunit alpha' (Homo sapiens) (UniProt P19784). The following applies: Compound concentration 1000.0 nM.
Assay [3] deals with Atypical kinase COQ8B, mitochondrial (Homo sapiens) (UniProt Q96D53). The following applies: Compound concentration 1000.0 nM.
The target in assay [4] is Mitogen-activated protein kinase 13 (Homo sapiens) (UniProt O15264). The following applies: Compound concentration 1000.0 nM.
Assay [5] deals with Mast/stem cell growth factor receptor Kit (Homo sapiens), P10721 [D816H]. The following applies: Compound concentration 1000.0 nM.
Assay [6] has as its system Epidermal growth factor receptor (Homo sapiens), P00533 [UNDEFINED MUTATION]. The following applies: Compound concentration 1000.0 nM.
Assay [7] concerns the target Death-associated protein kinase 2 (Homo sapiens) (UniProt Q9UIK4). The following applies: Compound concentration 1000.0 nM.
The subject of assay [8] is eIF-2-alpha kinase GCN2 (Homo sapiens), Q9P2K8 [S808G]. Conditions: Compound concentration 1000.0 nM.
Assay [9] concerns the target 5-hydroxytryptamine receptor 2C (Homo sapiens, UniProt P28335). Kind of assay: GPCRScan assay: inhibition of 5-HT2C. More on the design: radioligand conc. used [nm] 1.0 – 2.5, parental cells HEK T.
Assay [10] addresses Epithelial discoidin domain-containing receptor 1 (Homo sapiens) (UniProt Q08345). The following applies: Compound concentration 1000.0 nM.
Assay [11] deals with Eukaryotic translation initiation factor 2-alpha kinase 1 (Homo sapiens) (UniProt Q9BQI3). Conditions: Compound concentration 1000.0 nM.
Assay [12] addresses Serine/threonine-protein kinase SIK2 (Homo sapiens) (UniProt Q9H0K1). Conditions: Compound concentration 1000.0 nM.
Assay [13] addresses Tyrosine-protein kinase receptor UFO (Homo sapiens) (UniProt P30530). Conditions: Compound concentration 1000.0 nM.
The target of assay [14] is Phosphatidylinositol 5-phosphate 4-kinase type-2 gamma (Homo sapiens) (UniProt Q8TBX8). Conditions: Compound concentration 1000.0 nM.
Assay [15] has as its target Mitogen-activated protein kinase 15 (Homo sapiens) (UniProt Q8TD08). The following applies: Compound concentration 1000.0 nM.
Assay [16] relates to Tyrosine-protein kinase ABL1 (Homo sapiens), P00519 [Q252H]. Conditions: Compound concentration 1000.0 nM.
Assay [17] has as its target Rhodopsin kinase GRK1 (Homo sapiens) (UniProt Q15835). The following applies: Compound concentration 1000.0 nM.
Assay [18] relates to Epidermal growth factor receptor (Homo sapiens), P00533 [T790M]. The following applies: Compound concentration 1000.0 nM.
In assay [19] the target is Myotonin-protein kinase (Homo sapiens) (UniProt Q09013). Conditions: Compound concentration 1000.0 nM.
The target in assay [20] is Transient receptor potential cation channel subfamily M member 6 (Homo sapiens) (UniProt Q9BX84). The following applies: Compound concentration 1000.0 nM.
The target of assay [21] is Serine/threonine-protein kinase WNK3 (Homo sapiens) (UniProt Q9BYP7). Conditions: Compound concentration 1000.0 nM.
Serine/threonine-protein kinase WNK3 (Homo sapiens), sequence (Q9BYP7 whole entry): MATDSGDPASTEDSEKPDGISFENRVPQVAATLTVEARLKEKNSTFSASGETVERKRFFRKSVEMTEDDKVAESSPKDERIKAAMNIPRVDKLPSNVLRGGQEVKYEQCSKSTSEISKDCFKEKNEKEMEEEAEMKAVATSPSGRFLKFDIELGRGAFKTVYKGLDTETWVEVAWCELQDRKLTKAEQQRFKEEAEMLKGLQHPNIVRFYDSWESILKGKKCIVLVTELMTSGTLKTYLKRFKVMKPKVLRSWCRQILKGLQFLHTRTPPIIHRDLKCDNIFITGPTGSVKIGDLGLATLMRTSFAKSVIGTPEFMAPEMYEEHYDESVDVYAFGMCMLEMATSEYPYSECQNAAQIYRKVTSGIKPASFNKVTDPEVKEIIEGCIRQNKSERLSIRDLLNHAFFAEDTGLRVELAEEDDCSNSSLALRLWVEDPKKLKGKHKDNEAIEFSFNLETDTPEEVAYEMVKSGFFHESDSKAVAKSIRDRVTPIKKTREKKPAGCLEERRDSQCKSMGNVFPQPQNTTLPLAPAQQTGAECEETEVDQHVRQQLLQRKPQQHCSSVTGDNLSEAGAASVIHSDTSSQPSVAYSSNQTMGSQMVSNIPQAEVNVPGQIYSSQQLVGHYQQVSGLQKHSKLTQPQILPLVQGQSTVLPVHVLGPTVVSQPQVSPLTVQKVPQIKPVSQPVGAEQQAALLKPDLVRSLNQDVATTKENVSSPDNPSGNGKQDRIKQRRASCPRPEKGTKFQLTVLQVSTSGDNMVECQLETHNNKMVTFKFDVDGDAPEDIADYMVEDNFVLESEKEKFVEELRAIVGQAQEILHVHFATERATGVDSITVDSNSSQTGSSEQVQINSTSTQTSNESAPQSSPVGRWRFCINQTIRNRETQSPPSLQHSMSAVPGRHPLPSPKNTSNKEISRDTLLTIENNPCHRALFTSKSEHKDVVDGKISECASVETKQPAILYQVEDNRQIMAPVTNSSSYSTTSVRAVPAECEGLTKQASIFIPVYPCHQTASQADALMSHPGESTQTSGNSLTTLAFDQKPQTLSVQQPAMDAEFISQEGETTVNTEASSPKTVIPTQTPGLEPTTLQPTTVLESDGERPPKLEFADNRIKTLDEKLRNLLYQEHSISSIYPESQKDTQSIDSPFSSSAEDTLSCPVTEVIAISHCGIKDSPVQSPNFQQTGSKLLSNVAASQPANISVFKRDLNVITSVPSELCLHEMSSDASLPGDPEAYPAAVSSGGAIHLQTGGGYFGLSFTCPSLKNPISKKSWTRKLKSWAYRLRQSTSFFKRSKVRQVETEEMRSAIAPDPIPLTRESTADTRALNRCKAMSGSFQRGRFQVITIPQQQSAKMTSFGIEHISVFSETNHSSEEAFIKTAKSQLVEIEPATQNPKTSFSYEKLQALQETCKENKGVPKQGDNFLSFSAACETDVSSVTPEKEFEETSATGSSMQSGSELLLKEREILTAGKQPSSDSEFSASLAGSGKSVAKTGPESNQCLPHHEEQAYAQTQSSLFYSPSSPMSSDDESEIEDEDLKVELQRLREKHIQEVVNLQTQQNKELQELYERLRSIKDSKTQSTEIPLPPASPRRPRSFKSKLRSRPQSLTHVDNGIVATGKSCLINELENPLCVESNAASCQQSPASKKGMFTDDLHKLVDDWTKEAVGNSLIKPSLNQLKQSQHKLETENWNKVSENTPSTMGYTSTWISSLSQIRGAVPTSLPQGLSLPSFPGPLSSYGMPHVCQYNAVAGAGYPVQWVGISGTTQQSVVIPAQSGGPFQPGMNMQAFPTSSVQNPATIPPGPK
Assay [22] concerns the target Rho-associated protein kinase 1 (Homo sapiens) (UniProt Q13464). The following applies: Compound concentration 1000.0 nM.
In assay [23] the test system is Receptor-type tyrosine-protein kinase FLT3 (Homo sapiens), P36888 [UNDEFINED MUTATION]. Conditions: Compound concentration 1000.0 nM.
Assay [24] deals with Proto-oncogene tyrosine-protein kinase receptor Ret (Homo sapiens), P07949 [V804L]. Conditions: Compound concentration 1000.0 nM.
Assay [25] has as its target Serine/threonine-protein kinase PAK 3 (Homo sapiens) (UniProt O75914). The following applies: Compound concentration 1000.0 nM.
For assay [26], the target named is Microtubule-associated serine/threonine-protein kinase 1 (Homo sapiens) (UniProt Q9Y2H9). Conditions: Compound concentration 1000.0 nM.
In assay [27] the target is Serine/threonine-protein kinase Sgk2 (Homo sapiens) (UniProt Q9HBY8). Conditions: Compound concentration 1000.0 nM.
Assay [28] addresses Tyrosine-protein kinase Mer (Homo sapiens) (UniProt Q12866). Conditions: Compound concentration 1000.0 nM.
Assay [29] has as its system Epidermal growth factor receptor (Homo sapiens), P00533 [L861Q]. The following applies: Compound concentration 1000.0 nM.
The subject of assay [30] is Mast/stem cell growth factor receptor Kit (Homo sapiens), P10721 [V559D]. Conditions: Compound concentration 1000.0 nM.
Assay [31] deals with Beta-2 adrenergic receptor (Homo sapiens) (UniProt P07550). Conditions: Compound concentration 10.0 uM.
Assay [32] has as its target Mitogen-activated protein kinase kinase kinase kinase 2 (Homo sapiens) (UniProt Q12851). Kind of assay: GCK (h) Millipore kinase activity assay. The following applies: Compound concentration 1.0 uM.
Assay [33] concerns the target Activin receptor type-1B (Homo sapiens) (UniProt P36896). Kind of assay: ALK4 (h) Millipore kinase activity assay. Conditions: Compound concentration 1.0 uM.
For assay [34], the target named is LIM domain kinase 1 (Homo sapiens) (UniProt P53667). Kind of assay: LIMK1 (h) Millipore kinase activity assay. The following applies: Compound concentration 1.0 uM.
Assay [35] concerns the target Serine/threonine-protein kinase 3 (Homo sapiens) (UniProt Q13188). Kind of assay: MST2 (h) Millipore kinase activity assay. Conditions: Compound concentration 1.0 uM.
The target of assay [36] is Protein kinase C gamma type (Homo sapiens) (UniProt P05129). Kind of assay: PKCgamma(h) Millipore kinase activity assay. The following applies: Compound concentration 1.0 uM.
Assay [37] concerns the target Serine/threonine-protein kinase WNK2 (Homo sapiens) (UniProt Q9Y3S1). Kind of assay: WNK2 (h) Millipore kinase activity assay. Conditions: Compound concentration 1.0 uM.
The target of assay [38] is Histamine H1 receptor (Homo sapiens) (UniProt P35367). Conditions: Compound concentration 10.0 uM.
Histamine H1 receptor (Homo sapiens), sequence (P35367 whole entry): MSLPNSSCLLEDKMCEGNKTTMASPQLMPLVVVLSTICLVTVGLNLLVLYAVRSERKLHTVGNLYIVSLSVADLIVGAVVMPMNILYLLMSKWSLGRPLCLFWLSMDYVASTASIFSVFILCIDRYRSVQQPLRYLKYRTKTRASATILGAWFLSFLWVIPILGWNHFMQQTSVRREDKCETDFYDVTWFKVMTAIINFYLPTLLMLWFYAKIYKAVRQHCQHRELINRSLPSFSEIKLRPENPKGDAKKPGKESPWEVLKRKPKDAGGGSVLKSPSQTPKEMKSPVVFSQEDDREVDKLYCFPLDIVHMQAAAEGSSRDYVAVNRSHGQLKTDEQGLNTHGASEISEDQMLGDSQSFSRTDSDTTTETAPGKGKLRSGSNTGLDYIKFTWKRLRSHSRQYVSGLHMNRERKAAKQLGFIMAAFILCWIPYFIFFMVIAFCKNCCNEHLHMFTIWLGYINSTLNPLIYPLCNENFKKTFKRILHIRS
Assay [39] addresses Adenosine receptor A3 (Homo sapiens) (UniProt P0DMS8). The following applies: Compound concentration 10.0 uM.
In assay [40] the target is Vascular endothelial growth factor receptor 3 (Homo sapiens) (UniProt P35916). Kind of assay: Flt4 (h) Millipore kinase activity assay. Conditions: Compound concentration 1.0 uM.
Assay [41] addresses Homeodomain-interacting protein kinase 1 (Homo sapiens) (UniProt Q86Z02). Kind of assay: HIPK1 (h) Millipore kinase activity assay. The following applies: Compound concentration 1.0 uM.

Homeodomain-interacting protein kinase 1 (Homo sapiens), sequence (Q86Z02 whole entry, looked up): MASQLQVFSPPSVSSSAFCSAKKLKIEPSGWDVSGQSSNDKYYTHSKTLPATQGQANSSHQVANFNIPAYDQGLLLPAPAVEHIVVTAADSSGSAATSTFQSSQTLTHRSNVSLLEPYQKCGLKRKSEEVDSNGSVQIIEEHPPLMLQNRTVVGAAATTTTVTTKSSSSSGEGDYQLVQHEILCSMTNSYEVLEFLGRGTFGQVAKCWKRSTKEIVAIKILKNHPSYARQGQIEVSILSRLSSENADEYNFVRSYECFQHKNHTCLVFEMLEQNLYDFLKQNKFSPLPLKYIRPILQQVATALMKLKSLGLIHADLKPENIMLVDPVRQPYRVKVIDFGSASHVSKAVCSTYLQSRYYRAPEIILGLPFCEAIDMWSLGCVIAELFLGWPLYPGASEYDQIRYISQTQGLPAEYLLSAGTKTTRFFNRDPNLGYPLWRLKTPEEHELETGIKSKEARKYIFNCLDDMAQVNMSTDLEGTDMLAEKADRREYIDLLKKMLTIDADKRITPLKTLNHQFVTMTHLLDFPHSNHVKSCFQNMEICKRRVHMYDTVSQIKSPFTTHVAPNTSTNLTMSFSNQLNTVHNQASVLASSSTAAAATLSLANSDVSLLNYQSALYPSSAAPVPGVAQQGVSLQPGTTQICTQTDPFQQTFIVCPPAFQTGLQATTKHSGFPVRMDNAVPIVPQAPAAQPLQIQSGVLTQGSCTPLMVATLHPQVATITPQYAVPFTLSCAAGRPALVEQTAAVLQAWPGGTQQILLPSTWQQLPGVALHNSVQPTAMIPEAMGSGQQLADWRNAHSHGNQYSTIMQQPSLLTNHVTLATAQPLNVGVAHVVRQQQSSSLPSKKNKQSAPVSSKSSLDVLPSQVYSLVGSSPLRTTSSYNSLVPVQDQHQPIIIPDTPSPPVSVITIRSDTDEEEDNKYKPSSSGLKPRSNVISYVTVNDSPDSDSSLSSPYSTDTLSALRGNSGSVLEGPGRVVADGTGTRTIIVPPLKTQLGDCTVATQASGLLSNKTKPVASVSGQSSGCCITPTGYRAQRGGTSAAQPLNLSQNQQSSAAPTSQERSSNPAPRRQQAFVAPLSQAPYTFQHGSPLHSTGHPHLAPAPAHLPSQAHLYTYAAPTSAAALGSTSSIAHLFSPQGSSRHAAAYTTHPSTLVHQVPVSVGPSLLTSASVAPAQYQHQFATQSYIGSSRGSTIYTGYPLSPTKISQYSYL
Activin receptor type-1B (Homo sapiens), sequence (P36896 whole entry, the tested form may be a part): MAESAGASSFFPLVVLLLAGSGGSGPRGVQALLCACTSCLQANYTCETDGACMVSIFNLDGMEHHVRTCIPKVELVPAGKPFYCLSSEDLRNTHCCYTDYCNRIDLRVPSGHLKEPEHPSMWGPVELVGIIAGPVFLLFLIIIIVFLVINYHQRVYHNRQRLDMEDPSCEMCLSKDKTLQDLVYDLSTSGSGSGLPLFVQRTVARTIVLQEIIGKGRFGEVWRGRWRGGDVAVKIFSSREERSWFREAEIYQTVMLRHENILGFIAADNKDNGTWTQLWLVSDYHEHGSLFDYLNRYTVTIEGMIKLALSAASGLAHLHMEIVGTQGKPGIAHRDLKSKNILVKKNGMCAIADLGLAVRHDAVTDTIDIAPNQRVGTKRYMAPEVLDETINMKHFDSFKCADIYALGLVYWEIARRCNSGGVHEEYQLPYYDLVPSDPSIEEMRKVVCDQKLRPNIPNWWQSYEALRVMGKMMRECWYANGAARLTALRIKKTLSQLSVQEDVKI
Death-associated protein kinase 2 (Homo sapiens), sequence (Q9UIK4 whole entry, looked up): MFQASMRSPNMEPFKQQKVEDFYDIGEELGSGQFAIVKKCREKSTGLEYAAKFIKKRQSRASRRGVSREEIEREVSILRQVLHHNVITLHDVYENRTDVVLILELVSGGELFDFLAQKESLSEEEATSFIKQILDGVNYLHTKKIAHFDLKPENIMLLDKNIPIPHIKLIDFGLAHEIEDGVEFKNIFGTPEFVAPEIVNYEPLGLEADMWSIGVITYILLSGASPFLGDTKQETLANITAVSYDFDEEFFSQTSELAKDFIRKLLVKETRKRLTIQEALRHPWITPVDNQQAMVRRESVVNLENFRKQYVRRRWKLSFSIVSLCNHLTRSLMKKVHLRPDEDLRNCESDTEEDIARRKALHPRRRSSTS

Consider `CC1=C(C#N)[C@@H](c2ccc3[nH]nc(C)c3c2)C(C#N)=C(c2ccc(Cl)cc2)N1` [BAY-827], for which the residual activity was 35.8% in [1]; 100% in assay [2]; 78.8% in [3]; 100% in assay [4]; 84.3% in assay [5]; 100% in assay [6]. Besides, the residual activity in assay [7] was 100%; in assay [8] it was 89.9%; in assay [10], 84.5%; in assay [11] it was 100%; in assay [12] it was 100%; in assay [13], 100%. Further, the residual activity is 100% in [14]; 100% in assay [15]; 100% in assay [16]; 65.5% in assay [17]; 100% in [18]; 100% in [19]. Also, the residual activity was 100% in [20]; 100% in assay [21]; 68.5% in assay [22]; 93.9% in assay [23]; 96.4% in assay [24]; 100% in [25]. Further, the residual activity in assay [26], in assay [27], in [28], in [29] and in [30] was 100% throughout. Further, the Ki in assay [9] was 10 µM.

For the compound `CC1=C(C#N)C(c2ccc3[nH]nc(C)c3c2)C(C#N)=C(C)N1` [BAY-474], the inhibition in [31] is 4%; in [32] it was 1%; in assay [33], 4%; in assay [34], 2%; in [35], 7%; in assay [36] it was 18%. Besides, the inhibition is -8% in assay [37]; 1% in [38]; 13% in [39]; 26% in assay [40]; -5% in [41].

The values above are taken from ChEMBL document CHEMBL4507263, “Data for DCP probe BAY-474” (2021).
